Test results taken from patent US20260219259A1, “METHOD FOR QUANTIFYING INSULIN SECRETION CAPACITY IN HUMAN CELL” (JUNTENDO EDUCATIONAL FOUNDATION, priority 2023, published 2026).

Tested on: Huh7 cells
Assay: Insulin production in Huh7 cells expressing Ngn3, Mafa and Pdx1, insulin quantified using HISCL HI-1000
Assay type: cell-based, human
Details: concentration of from 1 to 30 nM; FIG. 8
Protocol: The recombinant SW872 cells that express 3 genes Ngn3, Mafa, and Pdx1 used here were expanded by long-term culture, and the resulting cells were subjected to the same experiment as above. […] Accordingly, a liver-derived cell line Huh7 was infected with Sendai virus vectors (TOKIWA-Bio Inc.) that express 3 genes Ngn3, Mafa, and Pdx1, cultured in a differentiation medium for β cells for 24 hours, and then transfected with expression plasmids of human KLF9 gene and human UCN3 gene using Lipofectamine 3000, and the amount of insulin produced was measured 5 days later. The expression plasmids of human KLF9 gene and human UCN3 gene were prepared by PCR and In-Fusion ligation reaction in the same manner as the method described in Example 3(1) using primers shown in SEQ ID NOs: 65 and 66 and SEQ ID NOS: 69 and 70. pEBMulti-Hyg was used as a negative control, and pEBMulti-hIns was used as a positive control. […] Insulin was quantified using HISCL HI-1000 (Sysmex Corp.). […]
Human SW872 cells that produce hIns-HiBiT5 were infected with Sendai virus vectors that express 3 genes Ngn3, Mafa, and Pdx1 in the same manner as in Example 4, and cultured in a differentiation medium for β cells for 24 hours. […] The method for quantifying insulin was performed in the same manner as in Example 4. […]

CCCC(CCC)C(=O)O [valproic acid]
insulin production from the Huh7 cells: promoted insulin production
